# From PubChem BioAssay (NCI)
#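 Results reflect a 48-hour exposure of cells in 96-well plates to compound at five concentrations. TGI denotes the concentration required for complete inhibition of growth.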
# Key:
# Assay in all cases: inhibition of tumour cell growth, NCI panel, 48 h
# SK-MEL-5 melanoma = system: SK-MEL-5 melanoma
# SF-268 CNS = system: SF-268 CNS
# 786-0 renal = system: 786-0 renal
# CAKI-1 renal = system: CAKI-1 renal
# HT29 colon = system: HT29 colon
# NCI-H522 lung = system: NCI-H522 lung
# RXF 393 renal = system: RXF 393 renal
# M14 melanoma = system: M14 melanoma
# MOLT-4 leukemia = system: MOLT-4 leukemia
# DU-145 prostate = system: DU-145 prostate
# OVCAR-5 ovarian = system: OVCAR-5 ovarian
# HOP-62 NSCLC = system: HOP-62 NSCLC
# PC-3 prostate = system: PC-3 prostate
# ACHN renal = system: ACHN renal
# NCI-H23 lung = system: NCI-H23 lung
# UACC-62 melanoma = system: UACC-62 melanoma
# NCI-H226 lung = system: NCI-H226 lung
# SK-MEL-28 melanoma = system: SK-MEL-28 melanoma
# NCI/ADR-RES ovarian = system: NCI/ADR-RES ovarian
# IGROV1 ovarian = system: IGROV1 ovarian
# LOX IMVI melanoma = system: LOX IMVI melanoma
# EKVX NSCLC = system: EKVX NSCLC
# SK-MEL-2 melanoma = system: SK-MEL-2 melanoma
# SW-620 colon = system: SW-620 colon
# K-562 leukemia = system: K-562 leukemia
# BT-549 breast = system: BT-549 breast
# NCI-H460 lung = system: NCI-H460 lung
# U251 CNS = system: U251 CNS
# MDA-MB-231 breast = system: MDA-MB-231 breast
# SR leukemia = system: SR leukemia
# HL-60(TB) leukemia = system: HL-60(TB) leukemia
# A498 renal = system: A498 renal
# SNB-75 CNS = system: SNB-75 CNS
# OVCAR-8 ovarian = system: OVCAR-8 ovarian
# UACC-257 melanoma = system: UACC-257 melanoma
# MDA-N = system: MDA-N
# HOP-92 NSCLC = system: HOP-92 NSCLC
# SF-295 CNS = system: SF-295 CNS
# HCT-116 colon = system: HCT-116 colon
# OVCAR-3 ovarian = system: OVCAR-3 ovarian
# A549 NSCLC = system: A549 NSCLC
# OVCAR-4 ovarian = system: OVCAR-4 ovarian
# MALME-3M melanoma = system: MALME-3M melanoma
# MDA-MB-435 = system: MDA-MB-435
# SN12C renal = system: SN12C renal
# SNB-19 CNS = system: SNB-19 CNS
# UO-31 renal = system: UO-31 renal
# TK-10 renal = system: TK-10 renal
# HCT-15 colon = system: HCT-15 colon
# T-47D breast = system: T-47D breast
# HCC-2998 colon = system: HCC-2998 colon
# KM12 colon = system: KM12 colon
# SF-539 CNS = system: SF-539 CNS
# RPMI-8226 leukemia = system: RPMI-8226 leukemia
# SK-OV-3 ovarian = system: SK-OV-3 ovarian
# CCRF-CEM leukemia = system: CCRF-CEM leukemia
# COLO 205 colon = system: COLO 205 colon
# HS 578T breast = system: HS 578T breast
# MCF7 breast = system: MCF7 breast
smiles,measurement,setting,value
COC(=O)c1cc(=O)[nH]c(=O)[nH]1,TGI,SK-MEL-5 melanoma,> 100 µM
same,TGI,SF-268 CNS,> 100 µM
same,TGI,786-0 renal,> 100 µM
same,TGI,CAKI-1 renal,> 100 µM
same,TGI,HT29 colon,> 100 µM
same,TGI,NCI-H522 lung,> 100 µM
same,TGI,RXF 393 renal,> 100 µM
same,TGI,M14 melanoma,> 100 µM
same,TGI,MOLT-4 leukemia,> 100 µM
same,TGI,DU-145 prostate,> 100 µM
same,TGI,OVCAR-5 ovarian,> 100 µM
same,TGI,HOP-62 NSCLC,> 100 µM
same,TGI,PC-3 prostate,> 100 µM
same,TGI,ACHN renal,> 100 µM
same,TGI,NCI-H23 lung,> 100 µM
same,TGI,UACC-62 melanoma,> 100 µM
same,TGI,NCI-H226 lung,> 100 µM
same,TGI,SK-MEL-28 melanoma,> 100 µM
same,TGI,NCI/ADR-RES ovarian,> 100 µM
same,TGI,IGROV1 ovarian,> 100 µM
same,TGI,LOX IMVI melanoma,> 100 µM
same,TGI,EKVX NSCLC,> 100 µM
same,TGI,SK-MEL-2 melanoma,> 100 µM
same,TGI,SW-620 colon,> 100 µM
same,TGI,K-562 leukemia,> 100 µM
same,TGI,BT-549 breast,> 100 µM
same,TGI,NCI-H460 lung,> 100 µM
same,TGI,U251 CNS,> 100 µM
same,TGI,MDA-MB-231 breast,> 100 µM
same,TGI,SR leukemia,> 100 µM
same,TGI,HL-60(TB) leukemia,> 100 µM
same,TGI,A498 renal,> 100 µM
same,TGI,SNB-75 CNS,> 100 µM
same,TGI,OVCAR-8 ovarian,> 100 µM
same,TGI,UACC-257 melanoma,> 100 µM
same,TGI,MDA-N,> 100 µM
same,TGI,HOP-92 NSCLC,> 100 µM
same,TGI,SF-295 CNS,> 100 µM
same,TGI,HCT-116 colon,> 100 µM
same,TGI,OVCAR-3 ovarian,> 100 µM
same,TGI,A549 NSCLC,> 100 µM
same,TGI,OVCAR-4 ovarian,> 100 µM
same,TGI,MALME-3M melanoma,> 100 µM
same,TGI,MDA-MB-435,> 100 µM
same,TGI,SN12C renal,> 100 µM
same,TGI,SNB-19 CNS,> 100 µM
same,TGI,UO-31 renal,> 100 µM
same,TGI,TK-10 renal,> 100 µM
same,TGI,HCT-15 colon,> 100 µM
same,TGI,T-47D breast,> 100 µM
CC1(C)N/C(=C\C=O)C(C)(C)N1O,TGI,SK-MEL-5 melanoma,> 100 µM
same,TGI,SF-268 CNS,> 100 µM
same,TGI,CAKI-1 renal,> 100 µM
same,TGI,HT29 colon,> 100 µM
same,TGI,RXF 393 renal,> 100 µM
same,TGI,M14 melanoma,> 100 µM
same,TGI,MOLT-4 leukemia,> 100 µM
same,TGI,DU-145 prostate,> 100 µM
same,TGI,OVCAR-5 ovarian,> 100 µM
same,TGI,HCC-2998 colon,> 100 µM
same,TGI,HOP-62 NSCLC,> 100 µM
same,TGI,PC-3 prostate,> 100 µM
same,TGI,ACHN renal,> 100 µM
same,TGI,NCI-H23 lung,> 100 µM
same,TGI,UACC-62 melanoma,> 100 µM
same,TGI,NCI-H226 lung,> 100 µM
same,TGI,KM12 colon,> 100 µM
same,TGI,SK-MEL-28 melanoma,> 100 µM
same,TGI,SF-539 CNS,> 100 µM
same,TGI,NCI/ADR-RES ovarian,> 100 µM
same,TGI,IGROV1 ovarian,> 100 µM
same,TGI,RPMI-8226 leukemia,> 100 µM
same,TGI,LOX IMVI melanoma,> 100 µM
same,TGI,EKVX NSCLC,> 100 µM
same,TGI,SK-MEL-2 melanoma,> 100 µM
same,TGI,SW-620 colon,> 100 µM
same,TGI,K-562 leukemia,> 100 µM
same,TGI,NCI-H460 lung,> 100 µM
same,TGI,U251 CNS,> 100 µM
same,TGI,MDA-MB-231 breast,> 100 µM
same,TGI,SR leukemia,> 100 µM
same,TGI,HL-60(TB) leukemia,> 100 µM
same,TGI,SK-OV-3 ovarian,> 100 µM
same,TGI,OVCAR-8 ovarian,> 100 µM
same,TGI,UACC-257 melanoma,> 100 µM
same,TGI,MDA-N,> 100 µM
same,TGI,HOP-92 NSCLC,> 100 µM
same,TGI,CCRF-CEM leukemia,> 100 µM
same,TGI,SF-295 CNS,> 100 µM
same,TGI,HCT-116 colon,> 100 µM
same,TGI,OVCAR-3 ovarian,> 100 µM
same,TGI,A549 NSCLC,> 100 µM
same,TGI,COLO 205 colon,> 100 µM
same,TGI,OVCAR-4 ovarian,> 100 µM
same,TGI,HS 578T breast,> 100 µM
same,TGI,MALME-3M melanoma,> 100 µM
same,TGI,MDA-MB-435,> 100 µM
same,TGI,SN12C renal,> 100 µM
same,TGI,SNB-19 CNS,> 100 µM
same,TGI,MCF7 breast,> 100 µM
same,TGI,UO-31 renal,> 100 µM
same,TGI,TK-10 renal,> 100 µM
same,TGI,HCT-15 colon,> 100 µM
CC1CCC/C1=C(/I)C(=O)c1ccccc1 (configuration not stated),TGI,SK-MEL-5 melanoma,69.5 µM
same,TGI,SF-268 CNS,> 100 µM
same,TGI,786-0 renal,> 100 µM
same,TGI,CAKI-1 renal,69.5 µM
same,TGI,HT29 colon,> 100 µM
same,TGI,NCI-H522 lung,> 100 µM
same,TGI,RXF 393 renal,> 100 µM
same,TGI,M14 melanoma,> 100 µM
same,TGI,MOLT-4 leukemia,45.2 µM
same,TGI,DU-145 prostate,> 100 µM
same,TGI,OVCAR-5 ovarian,> 100 µM
same,TGI,HCC-2998 colon,> 100 µM
same,TGI,HOP-62 NSCLC,> 100 µM
same,TGI,PC-3 prostate,> 100 µM
same,TGI,ACHN renal,> 100 µM
same,TGI,NCI-H23 lung,> 100 µM
same,TGI,UACC-62 melanoma,> 100 µM
same,TGI,NCI-H226 lung,> 100 µM
same,TGI,KM12 colon,> 100 µM
same,TGI,SK-MEL-28 melanoma,> 100 µM
same,TGI,SF-539 CNS,> 100 µM
same,TGI,NCI/ADR-RES ovarian,> 100 µM
same,TGI,IGROV1 ovarian,> 100 µM
same,TGI,RPMI-8226 leukemia,> 100 µM
same,TGI,LOX IMVI melanoma,92.7 µM
same,TGI,EKVX NSCLC,> 100 µM
same,TGI,SK-MEL-2 melanoma,> 100 µM
same,TGI,SW-620 colon,> 100 µM
same,TGI,K-562 leukemia,> 100 µM
same,TGI,NCI-H460 lung,> 100 µM
same,TGI,U251 CNS,> 100 µM
same,TGI,MDA-MB-231 breast,> 100 µM
same,TGI,SR leukemia,78.1 µM
same,TGI,HL-60(TB) leukemia,70.4 µM
same,TGI,SK-OV-3 ovarian,> 100 µM
same,TGI,SNB-75 CNS,85 µM
same,TGI,OVCAR-8 ovarian,> 100 µM
same,TGI,UACC-257 melanoma,> 100 µM
same,TGI,MDA-N,> 100 µM
same,TGI,CCRF-CEM leukemia,75.5 µM
same,TGI,SF-295 CNS,> 100 µM
same,TGI,HCT-116 colon,> 100 µM
same,TGI,A549 NSCLC,> 100 µM
same,TGI,COLO 205 colon,> 100 µM
same,TGI,OVCAR-4 ovarian,> 100 µM
same,TGI,HS 578T breast,> 100 µM
same,TGI,MALME-3M melanoma,> 100 µM
same,TGI,MDA-MB-435,82 µM
same,TGI,SN12C renal,> 100 µM
same,TGI,SNB-19 CNS,> 100 µM
same,TGI,UO-31 renal,> 100 µM
same,TGI,TK-10 renal,> 100 µM
same,TGI,HCT-15 colon,> 100 µM
same,TGI,T-47D breast,> 100 µM
